Measurements: patent US9181193B2, “Indenoquinolone compound, preparation method and use thereof” (Second Military Medical University, PLA, priority 2010, dated 2015)

Tests used:
Format in all cases: cell-based
[1] = tested on: MDA-MB-435 (human breast cancer cells); assay: MTT in vitro anti-tumor activity test, MDA-MB-435
[2] = tested on: HepG2 (human hepatoma cells); assay: MTT in vitro anti-tumor activity test, HepG2
[3] = tested on: A549 (human lung cancer cells); assay: MTT in vitro anti-tumor activity test, A549
[4] = tested on: Colo205 (human colon cancer cells); assay: MTT in vitro anti-tumor activity test, Colo205
[5] = MDA-MB-435, 100 μg/mL, MTT, 72 h
[6] = MDA-MB-435 human breast cancer cells, MTT, 72 h
[7] = HepG2 human hepatoma cells, MTT, 72 h
[8] = A549 human lung cancer cells, MTT, 72 h
[9] = Colo205 human colon cancer cells, MTT, 72 h
[10] = MTT assay, 72 h incubation, MDA-MB-435 cells
[11] = inhibition at 100 μg/mL, MTT assay, 72 h, MDA-MB-435 cells
[12] = MTT assay, 72 h incubation, HepG2 cells
[13] = inhibition at 100 μg/mL, MTT assay, 72 h, HepG2 cells
[14] = MTT assay, 72 h incubation, A549 cells
[15] = inhibition at 100 μg/mL, MTT assay, 72 h, A549 cells
[16] = MTT assay, 72 h incubation, Colo205 cells
[17] = inhibition at 100 μg/mL, MTT assay, 72 h, Colo205 cells

MDA-MB-435 IC50 [1, 6] [µg/mL] | HepG2 IC50 [2, 7] [µg/mL] | A549 IC50 [3, 8] [µg/mL] | Colo205 IC50 [4, 9] [µg/mL] | MDA-MB-435 IC50 [1, 10] [µg/mL] | HepG2 IC50 [2, 12] [µg/mL] | A549 IC50 [3, 14] | Colo205 IC50 [4, 16] [µg/mL] | Compound | MDA-MB-435 100 μg/mL IC % [1, 5] [%] | HepG2 100 μg/mL IC % ([2]; HepG2, 100 μg/mL, MTT, 72 h) [%] | A549 100 μg/mL IC % ([3]; A549, 100 μg/mL, MTT, 72 h) [%] | Colo205 100 μg/mL IC % ([4]; Colo205, 100 μg/mL, MTT, 72 h) [%] | MDA-MB-435 100 μg/mL IC % [1, 11] [%] | HepG2 100 μg/mL IC % [2, 13] [%] | A549 100 μg/mL IC % [3, 15] [%] | Colo205 100 μg/mL IC % [4, 17] [%]
4.98 | 10.31 | 18.26 | 6.70 |  |  |  |  | COc1ccc2c(c1)-c1c(OCCN(C)C)nc3ccc(OC)cc3c1C2=O [Compound 17] | 100 | 100 | 85.30 | 100 |  |  |  | 
 |  |  |  | 12.36 | 60.46 | 23.76 µg/mL | 11.75 | COc1cc2c3c(c(=O)n(CCn4ccnc4)c2cc1OC)-c1ccc(Cl)cc1C3=O [Compound 48] |  |  |  |  | 100 | 62.67 | 79.61 | 89.59
2.66 | 1.58 | 2.02 | 1.15 |  |  |  |  | COc1ccc2c(c1)C(=O)c1c-2c(OCCCN(C)C)nc2cc(OC)c(OC)cc12 [Compound 25] | 85.38 | 89.70 | 100 | 90.36 |  |  |  | 
1.45 | 3.71 | 1.04 | 1.47 |  |  |  |  | COc1cc2nc(OCCCN(C)C)c3c(c2cc1OC)C(=O)c1cc(Cl)ccc1-3 [Compound 29] | 100 | 91.20 | 100 | 98.69 |  |  |  | 
6.88 | 5.02 | 6.95 | 3.13 |  |  |  |  | COc1ccc2c(c1)C(=O)c1c-2c(OCCN2CCCCC2)nc2ccc(OC)cc12 [Compound 15] | 99.08 | 100 | 100 | 100 |  |  |  | 
>100 | >100 | >100 | >100 |  |  |  |  | COc1ccc2c(c1)C(=O)c1c-2c(OCCN2CCOCC2)nc2ccccc12 [Compound 5] | 19.75 | 13.97 | 48.72 | 43.88 |  |  |  | 
44.76 | 55.62 | 32.73 | 39.33 |  |  |  |  | O=C1c2cc(Cl)ccc2-c2c(OCCN3CCCCC3)nc3ccccc3c21 [Compound 11] | 69.43 | 63.27 | 69.84 | 69.24 |  |  |  | 
10.51 | 11.27 | 6.89 | 1.45 |  |  |  |  | COc1cc2nc(OCCN(C)C)c3c(c2cc1OC)C(=O)c1cc(Cl)ccc1-3 [Compound 26] | 100 | 97.91 | 100 | 100 |  |  |  | 
42.24 | >100 | >100 | 18.70 |  |  |  |  | COc1ccc2nc(OCCn3ccnc3)c3c(c2c1)C(=O)c1cc(Br)ccc1-3 [Compound 19] | 59.37 | 37.50 | 17.66 | 80.89 |  |  |  | 
1.17 | 0.700 | 1.68 | 2.56 |  |  |  |  | CCN(CC)CCOc1nc2cc(OC)c(OC)cc2c2c1-c1ccc(OC)cc1C2=O [Compound 21] | 93.41 | 93.16 | 100 | 88.97 |  |  |  | 
12.28 | 15.99 | 5.78 | 7.10 |  |  |  |  | O=C1c2cc(Cl)ccc2-c2c(OCCN3CCCC3)nc3ccccc3c21 [Compound 9] | 100 | 82.92 | 100 | 71.11 |  |  |  | 
 |  |  |  | >100 | >100 | >100 µg/mL | >100 | O=C1c2cc(Cl)ccc2-c2c1c1ccccc1n(CCN1CCCCC1)c2=O [Compound 39] |  |  |  |  | 14.88 | 22.39 | 47.81 | 13.12
 |  |  |  | 0.014 | 1.93 | 1.42 µg/mL | 0.346 | COc1ccc2c(c1)C(=O)c1c-2c(=O)n(CCN2CCCC2)c2cc(OC)c(OC)cc12 [Compound 44] |  |  |  |  | 78.20 | 84.59 | 94.74 | 92.66
4.09 | 3.48 | 2.91 | 3.49 |  |  |  |  | COc1ccc2c(c1)C(=O)c1c-2c(OCCCN(C)C)nc2ccc(OC)cc12 [Compound 16] | 100 | 100 | 100 | 100 |  |  |  | 
 |  |  |  | >100 | 21.05 | >100 µg/mL | 69.03 | COc1cc2c3c(c(=O)n(CCN4CCOCC4)c2cc1OC)-c1ccc(Cl)cc1C3=O [Compound 49] |  |  |  |  | 48.01 | 59.34 | 28.48 | 50.06
 |  |  |  | 1.52 | 11.51 | 3.25 µg/mL | 3.16 | CN(C)CCCn1c(=O)c2c(c3ccccc31)C(=O)c1cc(Cl)ccc1-2 [Compound 40] |  |  |  |  | 100 | 100 | 86.70 | 100
 |  |  |  | 0.703 | 3.36 | ≈100 μg/mL | 0.632 | COc1ccc2c(c1)C(=O)c1c-2c(=O)n(CCN(C)C)c2ccc(OC)cc12 [Compound 41] |  |  |  |  | 77.77 | 85.01 | 49.27 | 83.62
 |  |  |  | 9.37 | 22.97 | 13.16 µg/mL | 18.77 | O=C1c2cc(Cl)ccc2-c2c1c1ccccc1n(CCn1ccnc1)c2=O [Compound 38] |  |  |  |  | 100 | 88.62 | 100 | 95.16
 |  |  |  | >100 | >100 | >100 µg/mL | >100 | COc1ccc2c(c1)C(=O)c1c-2c(=O)n(CCN2CCOCC2)c2ccccc12 [Compound 33] |  |  |  |  | 27.19 | 4.57 | 40.55 | 29.31
1.99 | 2.50 | 1.53 | 0.427 |  |  |  |  | CCN(CC)CCOc1nc2ccccc2c2c1-c1ccc(OC)cc1C2=O [Compound 2] | 100 | 100 | 100 | 100 |  |  |  | 
15.02 | 34.93 | 14.48 | 31.06 |  |  |  |  | O=C1c2cc(Cl)ccc2-c2c(OCCn3ccnc3)nc3ccccc3c21 [Compound 10] | 99.70 | 92.06 | 97.57 | 80.16 |  |  |  | 
 |  |  |  | 1.12 | 3.71 | 3.59 µg/mL | 15.89 | COc1cc2c3c(c(=O)n(CCCN(C)C)c2cc1OC)-c1ccc(Cl)cc1C3=O [Compound 50] |  |  |  |  | 89.80 | 36.98 | 85.91 | 76.93
4.34 | 2.47 | 17.27 | 1.79 |  |  |  |  | COc1ccc2c(c1)C(=O)c1c-2c(OCCN(C)C)nc2ccc(OC)cc12 [Compound 13] | 100 | 100 | 100 | 96.52 |  |  |  | 

Compound | MDA-MB-435 IC50 [1, 6] [µg/mL] | HepG2 IC50 [2, 7] [µg/mL] | A549 IC50 [3, 8] [µg/mL] | Colo205 IC50 [4, 9] [µg/mL] | MDA-MB-435 IC50 [1, 10] [µg/mL] | HepG2 IC50 [2, 12] [µg/mL] | A549 IC50 [3, 14] | Colo205 IC50 [4, 16] [µg/mL] | MDA-MB-435 100 μg/mL IC % [1, 5] [%] | HepG2 100 μg/mL IC % ([2]; HepG2, 100 μg/mL, MTT, 72 h) [%] | A549 100 μg/mL IC % ([3]; A549, 100 μg/mL, MTT, 72 h) [%] | Colo205 100 μg/mL IC % ([4]; Colo205, 100 μg/mL, MTT, 72 h) [%] | MDA-MB-435 100 μg/mL IC % [1, 11] [%] | HepG2 100 μg/mL IC % [2, 13] [%] | A549 100 μg/mL IC % [3, 15] [%] | Colo205 100 μg/mL IC % [4, 17] [%]
COc1ccc2c(c1)C(=O)c1c-2c(OCCN2CCCC2)nc2ccccc12 [Compound 3] | 26.55 | 24.99 | 14.39 | 10.97 |  |  |  |  | 100 | 80.79 | 99.90 | 92.33 |  |  |  | 
